The numbers were not newly measured in patent US10881750B2, “Sentinel lymph node marker capable of multi-mode imaging” (NATIONAL CANCER CENTER, priority 2010, dated 2021), which cites them from elsewhere.

For the data set the following is noted: 18 breast cancer patients, clinical trials (Kitai et al., Breast Cancer 2005).

For the compound `CC1(C)C(/C=C/C=C/C=C/C=C2\N(CCCCS(=O)(=O)O)c3ccc4ccccc4c3C2(C)C)=[N+](CCCCS(=O)(=O)[O-])c2ccc3ccccc3c21` [indocyanine green], the “safety in clinical use” value is on record as “safe to use”.
